Laboratory results: US3984543A, “Therapeutic methods employing cyclic aminophosphonic acids” (Henkel & Cie G.m.b.H., priority 1973, dated 1976)

Columns and labels:
[1] = Sequestration of calcium (modified Hampshire test); format: physicochemical; settings: pH 11; for Consumption of Sequestering Agent Solution: 1 gm sequestering agent in 50 ml H2O, until CaCO3 precipitate redissolved
Protocol: In the investigation of the sequestration of calcium, a modified Hampshire test was employed and worked as follows:
1 gm of the sequestering agent was dissolved in 50 ml of H2 O, adjusted with NaOH to a pH of 11. 50 ml of a Ca^+^+ solution (1470 mg of CaCl2.2H2 0/1) were mixed with 100 ml of a sodium carbonate solution (7.15 gm NaCO3.10H2 O/l.). Then the solution of the sequestering agent was added in drops from a burette until the calcium carbonate precipitate was redissolved. The values formed have been reported in Table I. For the sake of simplicity, only the value for n and the various substituents for R according to Formula I are indicated in the left column of the Table.

[2] = Apatite crystallization delay test in vitro; format: physicochemical; settings: 2 mg, pH 7.4, 35°C
Protocol: Supersaturated solutions of Ca^+^+ and HPO4 ^-^- ions are relatively stable, but crystallize after the addition of an apatite nuclei according to the reaction
with the release of protons. The reaction can, therefore, be readily observed by titration with a base at a constant pH.
400 ml of 0.0008 molar KH2 PO4 solution were mixed with 45 ml of a 0.012 molar CaCl2 solution, and the clear solution was standardized with KOH to a pH of 7.4, after being brought to a temperature of 35°C. […] The crystallization set in immediately and was followed by "pH-Stat" titration with 0.05 N KOH.
If a small amount (2 mg) of one of the cyclic aminophosphonic acids of the invention was added to the solution before the apatite was added, the crystallization was greatly delayed.
For simplicity's sake, only the value for n and the various substituents for R according to Formula I in Example 8 are indicated in the left column of the Table.

[3] = Inhibition of precipitation of NH4 MgPO4 in vitro; format: physicochemical; settings: pH 7.4, 72 hours
Protocol: Since the precipitation of NH4 MgPO4 is occasionally the cause of the formation of urinary calculus, the inhibition of the precipitation of NH4 MgPO4 was also tested in aqueous solutions at pH 7.4. The test was carried out as follows.
A fixed amount of the phosphonic acid was weighed into a beaker and dissolved with 25 ml of a phosphate solution (13.799 gm of NaH2 PO4.H2 O/liter) as well as with 40 ml of distilled water, and standardized with NaOH to a pH of 7.4. After adding 25 ml of a Mg^+^+ and NH4 ^+ solution (20.333 gm of MgC12.6H2 O and 5.349 gm of NH4 Cl/liter, standardized to a pH of 7.4), the solution was brought up with distilled H2 O to 100 ml. Then the sample was covered and evaluated after 72 hours for amount and appearance of the precipitate. The explanation of the data in the left column is to be found in Example 8.

[4] = Acute toxicity (LD50) in mice; settings: mouse, in vivo
Description: The new phosphonic acids are characterized by a very low acute toxicity. The following LD50 values of Table IV were found in mice. For the explanation of the data in the left column of Table IV, see Example 8.

[5] = Threshold effect: prevention of precipitation of poorly soluble calcium compounds by substoichiometric amounts; format: physicochemical; settings: 30 minutes
Protocol: The prevention of the precipitation of poorly soluble calcium compounds by substoichiometric amounts of a sequestering agent was determined at 60° and 95° C as follows:
25 ml of 80° dH (German hardness) water (corresponding to 800 mg CaO/l.) were mixed with a 10 ml of a solution of the sequestering agent (concentration: 300 mg/l.). After dilution with distilled water to 70 ml, 25 ml of a sodium carbonate solution containing 4 gm/l. were added and the solution was brought to 100 ml. After heating for 30 minutes at the indicated temperature, any precipitate formed was separated. The sequestering agent was removed from a measured amount of the clear filtrate by means of an anion exchange resin. Then the content of the dissolved calcium in this sample was determined by complexometry (according to Scharzenbach).

[6] = Calcium phosphate dissolution in vitro (CaHPO4 test); format: physicochemical; settings: for Consumption Sequestering Agent Solution: 10 mg/ml solution, pH 7.4, clear solution after 1 hour; for mg CaHPO4 dissolved / gm Sequestering Agent: pH 7.4, 1 hour
Protocol: Essential tests for the effectiveness of the compounds in physiological systems are in vitro tests for the dissolving of freshly precipitated CaHPO4, as well as preventing the precipitation of NH4 MgPO4 at a pH of 7.4. The "CaHPO4 test" was carried out as follows.
By combining 25 ml of a phosphate solution (1.38 gm of NaH2 PO4.H2 O/liter, standardized to a pH of 7.4) and 25 ml of a calcium solution (1.45 gm of CaCl2.2H2 O/liter, standardized to a pH of 7.4), a precipitate of CaHPO4 was produced. Thereafter, so much of a solution of the sequestering agent (at a concentration of 10 mg/ml) was added from a burette that a clear solution was obtained after standing for 1 hour.

Row | SMILES | Consumption of Sequestering Agent Solution [1] [mL] | mg CaCO3 Sequestered per gm of Compound [1] | Delay of crystallization in % after 4 Hours [2] [%] | Delay of crystallization in % after 8 Hours [2] [%] | LD50 [4] [mg/kg] | CaO in Solution ([5]; 60 °C) [%] | CaO precipitated ([5]; 60 °C) [%] | CaO in Solution ([5]; 95 °C) [%] | CaO precipitated ([5]; 95 °C) [%] | Consumption Sequestering Agent Solution [6] [mL] | mg CaHPO4 dissolved / gm Sequestering Agent [6] | also measured
1 | NC1(P(=O)(O)O)CCCC(=O)NP1(=O)O (stereo not shown) [n=3, R=H, 2-Hydroxy-2-oxo-3-amino-3-phosphonyl-7-oxo-1-aza-2-phospha-cycloheptane] | 3.1 | 810 mg CaCO3 per gm of Compound | 96 | 96 | 10000 | 99.6 | 0.4 | 99.5 | 0.5 | 2.5 | 1350 mg CaHPO4 / gm Sequestering Ag | Precipitation after 72 hours: NH4 MgPO4 crystals ([3]; 68.5 mg): Fewer NH4 MgPO4 crystals; Precipitation after 72 hours: cloudiness ([3]; 68.5 mg): great cloudiness
2 | CNC1(P(=O)(O)O)CCC(=O)N(C)P1(=O)O (stereo not shown) [n=2, R=CH3, 1-Methyl-2-hydroxy-2-oxo-3-methylamino-3-phosphonyl-6-oxo-1-aza-2-phospha-cyclohexane] | 3.0 | 840 mg CaCO3 per gm of Compound | 84 | 76 | – | – | – | – | – | 4.0 | 850 mg CaHPO4 / gm Sequestering Ag | Precipitation after 72 hours: NH4 MgPO4 crystals ([3]; 145 mg): Very few NH4 MgPO4 crystals; Precipitation after 72 hours: cloudiness ([3]; 145 mg): no cloudiness; Precipitation after 72 hours: NH4 MgPO4 crystals ([3]; 217.5 mg): No NH4 MgPO4 crystals; Precipitation after 72 hours: cloudiness ([3]; 217.5 mg): no
3 | CCNC1(P(=O)(O)O)CCC(=O)N(CC)P1(=O)O (stereo not shown) [n=2, R=C2 H5, 1-Ethyl-2-hydroxy-2-oxo-3-ethylamino-3-phosphonyl-6-oxo-1-aza-2-phospha-cyclohexane] | 2.25 | 1110 mg CaCO3 per gm of Compound | – | – | – | – | – | – | – | – | – | –
4 | NC1(P(=O)(O)O)CCC(=O)NP1(=O)O (stereo not shown) [n=2, R=H, 2-Hydroxy-2-oxo-3-amino-3-phosphonyl-6-oxo-1-aza-2-phospha-cyclohexane] | 2.6 | 1040 mg CaCO3 per gm of Compound | – | – | 3200 | 99.6 | 0.4 | 99.5 | 0.5 | 6.0 | 570 mg CaHPO4 / gm Sequestering Ag | Precipitation after 72 hours: NH4 MgPO4 crystals ([3]; 61 mg): Few NH4 MgPO4 crystals; Precipitation after 72 hours: cloudiness ([3]; 61 mg): some; Precipitation after 72 hours: NH4 MgPO4 crystals ([3]; 122 mg): No NH4 MgPO4 crystals; Precipitation after 72 hours: cloudiness ([3]; 122 mg): great
5 | CNC1(P(=O)(O)O)CCCC(=O)N(C)P1(=O)O (stereo not shown) [n=3, R=CH3, 1-Methyl-2-hydroxy-2-oxo-3-methylamino-3-phosphonyl-7-oxo-1-aza-2-phospha-cycloheptane] | 3.8 | 660 mg CaCO3 per gm of Compound | – | – | – | – | – | – | – | 5.0 | 680 mg CaHPO4 / gm Sequestering Ag | Precipitation after 72 hours: NH4 MgPO4 crystals ([3]; 72 mg): Few NH4 MgPO4 crystals; Precipitation after 72 hours: NH4 MgPO4 crystals ([3]; 144 mg): No NH4 MgPO4 crystals
6 | NC1(P(=O)(O)O)CC(=O)NP1(=O)O (stereo not shown) [n=1, R=H, 2-Hydroxy-2-oxo-3-amino-3-phosphonyl-5-oxo-1-aza-2-phospha-cyclopentane] | 2.6 | 1040 mg CaCO3 per gm of Compound | – | – | – | 76.1 | 23.9 | 87.7 | 12.3 | 8.0 | 420 mg CaHPO4 / gm Sequestering Ag | –
